Measurements taken from patent US10792291B2, “Applications for levonorgestrel in preparing anti-ovarian cancer products” (SHANGHAI JIAO TONG UNIVERSITY, priority 2015, dated 2020).

Key:
Assay type in all cases: cell-based
[1] = tested on: SKOV-3 ovarian cancer cells; assay: CELLTITER-GLO Luminescent Cell Viability Assay, SKOV-3 ovarian cancer cells
Description: In example 1, CELLTITER-GLO was used to test levonorgestrel against ovarian cancer. m) A cell counter was used to count the number of suspended cells and adjust the cell suspension to an appropriate density in the plate to carry out cell plating experiments. n) SKOV-3 cells were handled as described above, and a SKOV-3 96-well cell culture plate was obtained. The complete medium for SKOV-3 cells was McCOY'S 5A (a live product), Cat #16600082, with a cells/well density of 12000. 2. The drug analyte levonorgestrel was prepared and administered (200× final concentration): a) DMSO was used to dilute the analyte levonorgestrel to 20 mM for use. b) 79 μL of the 20 mM analyte prepared in step a) was added to the first well in the first row of the dilution plate, and then 54 μL of DMSO solution was added to the second through ninth wells of the first row. […] The final concentrations (μM) of the analyte drug in wells 2-10 in FIG. 1 are, in order: 100, 31.64557, 10.01442, 3.16912, 1.002886, 0.317369, 0.100433, 0.031783, 0.010058; B. CELLTITER-GLO Luminescent Cell Viability Assay System a) Before testing, the SKOV-3 96-well drug screening plate described in 3 above was stabilized to room temperature for 20-30 minutes. c) 100 μl of CellTiter-Glo reagent (prepared as described in 1 above) was added to all drug screening plates and mixed evenly. d) It was thoroughly oscillated in a 96-well microplate oscillator for 2 minutes to allow the cells to undergo full lysis. e) It was stored away from light at room temperature for 15 minutes before carrying out luminescent signal detection to ensure signal stability. f) An EnSpire multi-function plate reader was used at 570 nm to read the luminescent signals. g) Data was processed and analyzed.

[2] = tested on: NCI-H441 human lung adenocarcinoma cells; assay: CELLTITER-GLO cell viability assay, NCI-H441 cells (same method)
Experimental: (§1) In the examples below, the product sources for the SKOV-3 ovarian cancer cells, the NCI-H1993 non-small cell human lung cancer cells, and the NCI-H441 human lung adenocarcinoma cells are as follows: In example 1, CELLTITER-GLO was used to test levonorgestrel against ovarian cancer. c) The SKOV-3 96-well cell plates prepared in step 1 were removed from the incubator, and 10 μl of the cell culture media (10× final concentration) with varying drug concentrations as described in b) above was added to the SKOV-3 96-well cell culture plate row-by-row as shown in FIG. 1. It was placed into a CO2 incubator at 37° C. for 72 hours, obtaining the SKOV-3 96-well drug screening plate. The final concentrations (μM) of the analyte drug in wells 2-10 in FIG. 1 are, in order: 100, 31.64557, 10.01442, 3.16912, 1.002886, 0.317369, 0.100433, 0.031783, 0.010058; B. CELLTITER-GLO Luminescent Cell Viability Assay System c) 100 μl of CellTiter-Glo reagent (prepared as described in 1 above) was added to all drug screening plates and mixed evenly. f) An EnSpire multi-function plate reader was used at 570 nm to read the luminescent signals. The same method was used to test levonorgestrel's action on the IC50 values of NCI-H1993 human lung non-small cell carcinoma cells and NCI-H441 human lung adenocarcinoma cells; results are shown in Table 1.

[3] = tested on: NCI-H1993 human lung non-small cell carcinoma cells; assay: CELLTITER-GLO cell viability assay, NCI-H1993 cells (same method)
Experimental: as §1

Compound: C#C[C@]1(O)CC[C@H]2[C@@H]3CCC4=CC(=O)CC[C@@H]4[C@H]3CC[C@@]21CC [levonorgestrel]
- IC50 ([1]; Homo sapiens, SK-OV-3, SKOV-3 cells, 72 hours, CellTiter-Glo): 3.34 µM
- EC50 ([1]; Homo sapiens, SK-OV-3, SKOV-3 cells, 72 hours, CellTiter-Glo, FIG. 2): 3.08 µM
- effect on the proliferation of ovarian cancer cells ([1]; compared with NCI-H441 and NCI-H1993 lung cancer cells): specific inhibitory effect
- IC50 [2]: ≥ 100 µM
- IC50 [3]: ≥ 100 µM
